Laboratory results reported in ChEMBL document CHEMBL6096664, “Discovery of novel KSP-targeting PROTACs with potent antitumor effects in vitro and in vivo” (Eur J Med Chem, 2025).

How the values were obtained:
[1] = test system: A549; test: Antiproliferative activity against human A549 cells assessed as inhibition of cell proliferation measured after 72 hrs by CCK8 assay; assay type: functional, cell-based; settings: A549, 72 h
[2] = test system: HCT-116; test: Induction of apoptosis in human HCT-116 cells assessed as necrotic cells at 10 nM incubated for 48 hrs by Annexin V-FITC/PI staining based flow cytometry analysis (reference value: 1.31 %); assay type: functional
[3] = test system: HCT-116; test: Induction of cell cycle arrest in human HCT-116 cells assessed as accumulation of cells at S phase at 10 nM incubated for 24 hrs by RNase A/propidium iodide staining based flow cytometric analysis (reference value: 2.84 %); assay type: functional
[4] = test system: HCT-116; test: Induction of cell cycle arrest in human HCT-116 cells assessed as accumulation of cells at G2/M phase at 100 nM incubated for 24 hrs by RNase A/propidium iodide staining based flow cytometric analysis (reference value: 4.05 %); assay type: functional
[5] = target: T1, Kinesin-like protein KIF11 (Homo sapiens, UniProt P52732); test: Inhibition of KSP (unknown origin) ATPase activity preincubated for 30 mins followed by ATP addition and measured after 15 mins by Kinase-Glo Plus reagent based luminescence analysis
T1 sequence (P52732 whole entry): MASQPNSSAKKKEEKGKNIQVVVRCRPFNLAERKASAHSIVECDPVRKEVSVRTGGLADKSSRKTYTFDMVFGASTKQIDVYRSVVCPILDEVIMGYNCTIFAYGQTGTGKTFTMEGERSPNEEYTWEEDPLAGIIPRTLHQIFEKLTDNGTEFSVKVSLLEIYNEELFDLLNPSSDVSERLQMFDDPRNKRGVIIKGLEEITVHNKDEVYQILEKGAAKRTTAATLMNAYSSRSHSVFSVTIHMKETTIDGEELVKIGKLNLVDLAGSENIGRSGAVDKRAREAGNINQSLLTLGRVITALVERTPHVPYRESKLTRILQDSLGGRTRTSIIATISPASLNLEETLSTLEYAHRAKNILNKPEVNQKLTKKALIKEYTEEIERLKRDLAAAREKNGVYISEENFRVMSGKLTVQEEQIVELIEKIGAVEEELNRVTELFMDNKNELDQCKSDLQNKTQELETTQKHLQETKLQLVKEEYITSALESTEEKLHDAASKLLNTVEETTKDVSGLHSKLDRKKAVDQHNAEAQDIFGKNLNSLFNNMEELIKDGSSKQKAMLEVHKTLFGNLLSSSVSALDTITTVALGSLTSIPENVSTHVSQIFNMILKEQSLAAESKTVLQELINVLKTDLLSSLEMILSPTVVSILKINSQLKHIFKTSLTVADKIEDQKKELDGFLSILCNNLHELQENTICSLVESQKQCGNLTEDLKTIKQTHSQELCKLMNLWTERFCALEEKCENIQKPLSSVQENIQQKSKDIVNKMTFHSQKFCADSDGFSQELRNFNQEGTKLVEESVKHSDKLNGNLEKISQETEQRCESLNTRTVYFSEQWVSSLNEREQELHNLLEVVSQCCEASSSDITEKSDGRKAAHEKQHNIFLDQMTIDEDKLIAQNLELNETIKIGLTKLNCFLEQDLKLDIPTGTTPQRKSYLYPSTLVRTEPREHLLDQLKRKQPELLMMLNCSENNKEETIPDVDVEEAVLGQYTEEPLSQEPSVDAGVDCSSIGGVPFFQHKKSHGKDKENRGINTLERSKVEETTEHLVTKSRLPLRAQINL

[6] = test system: MCF7; test: Antiproliferative activity against human MCF7 cells assessed as inhibition of cell proliferation measured after 72 hrs by CCK8 assay; assay type: functional, cell-based; settings: MCF7, 72 h
[7] = test system: HCT-116; test: Antitumor activity against human HCT-116 cells xenografted in female BALB/c nu/nu mouse assessed as reduction in tumor volume at 15 mg/kg, ip measured every 2 days for 14 days relative to control; assay type: functional; set-up: scale not given: the % may be the effect or the level left; settings: time 14 day

Compound COc1ccc(C2(SC[C@H](N)C(=O)NCCCCCCCCNC(=O)COc3cccc4c3C(=O)N(C3CCC(=O)NC3=O)C4=O)c3ccccc3C=Cc3ccccc32)cc1 (some centres not stated) has an IC50 [1] of 160 nM, an Activity [2] of 13.67% and an Activity [3] of 9.87%. For the same compound, the Activity [4] was 75.05%, the IC50 [5] was 290 nM and the IC50 [6] was 424 nM. For the same compound, the Activity [7] was 98%.
